The source of these data is US20060014826A1, “Dioxocyclohexane carboxylic acid phenyl amide derivatives for modulating voltage-gated potassium channels and pharmaceutical compositions containing the same” (Wyeth, priority 2004, published 2006).

The test system of data set [1] is mouse 4-Plate model (punished crossings). Description: Anxiolytic activity, mouse 4-Plate model. The data set is classed as in vivo, male Swiss Webster mice. How it is done: Anxiolytic activity of the compounds of this invention was determined using the mouse 4-Plate model, originally described by Boissier et al. (Eur. J. Pharmacol. (1968) 4:145-151). The test procedure used is described in further detail below. Anxiolytic efficacy is measured as the ability of the test compound to increase the number of times that an animal will accept a mild punishment (in the form of a foot shock) in order to explore its environment. A number of clinically effective treatments for anxiety from multiple pharmacological classes are effective in this model (Hascoet et al., Pharmacol. Biochem. Beh. (2000) 65:339-344).
The compound of Example 8 was examined in the 4-Plate model.
Experimental Protocol for the 4-Plate Model
The “four-plate” apparatus consisted of a Plexiglas cage (18×25×16 cm) floored by four identical rectangular metal plates (8×11 cm) separated from one another by a gap of 4 mm. The plates were connected to a device that generated electric shocks (0.8 mA, 0.5 sec). […] Test animals (male Swiss Webster mice) were group housed with ad-lib access to food and water. Compounds were administered at the appropriate dose ip. 30 min prior to testing. Control animals were given the vehicle without drug. Animals were then placed in the 4-plate apparatus and allowed to habituate for 18 seconds. Following the 18-sec habituation period, an electric shock (0.8 mA, 0.5 sec) was delivered to the mouse when crossing from one plate to another. No shocks were delivered during the 3 seconds following shock administration. The number of punished crossings was recorded during a 1-min testing period. Data were expressed as the percent change in the number of punished crossings relative to control.

Data set [2] deals with T1, human Kv1.1/Kvβ1 potassium ion channel complex (Homo sapiens, UniProt Q09470+Q14722).
T1 construct: expressed in transfected cells; host or cells: Xenopus oocytes injected with cRNA
Description: Inhibiting the inactivation of Kv1.1/Kvβ1 potassium ion channel complex, voltage clamp current recordings in Xenopus oocytes. The data set is classed as cell-based. The conditions noted are these: relative to control oocytes without test compound, read-out: Percent Increase in Steady State Current (@ concentration shown in parentheses). Here is the method: Compounds useful in this invention were examined for their ability to inhibit the inactivation of the human Kv1.1/Kvβ1 potassium ion channel complex in vitro using electrophysiological current recordings on inactivating Kv1.1/Kvβ1channels expressed in Xenopus oocytes. The following procedure was used.
Xenopus oocytes were harvested from frogs under general anesthesia using aseptic techniques. Oocytes were treated with 2 mg/ml collagenase for 1-1.5 hr, defolliculated, and injected with 40 nL cRNA (a mixture of hKv1.1 and hKvβ1) produced using standard molecular biological techniques (Sambrook, et al., 1989, Molecular Cloning: A Laboratory Manual). The concentration of hKv1.1/hKvβ1 cRNA varies, but was generally about 50 ng/μL hKv1.1 and […] hkβ1.
Currents were recorded using standard voltage clamp amplifiers at room temperature. Recordings were performed in the bath solution “ND-96” containing 96 mM NaCl, 2 mM KCl, 1 mm CaCl2, 1 mM MgCl2, 10 mM HEPES and […] Gentamycin (pH=7.6). The pipette (electrode) solution generally consisted of 3 mM KCl. Electrodes were made from WPI TW150F-4 borosilicate glass (or equivalent) and typically had resistances of 0.5-1.5 Mohms. The standard current—voltage (IV) pulse protocol consisted of voltage steps from −60 mV to +50 mV, in 10 mV increments for 200 ms, at a frequency of one IV set per 2 minutes. Data were digitized and analyzed by standard software packages.
Test compounds where first dissolved in DMSO to an initial concentration of 1-100 mM. Working dilutions of 1:2000 to 1:500 were made in the bath solution for final concentrations in the micromolar range. The bath solutions containing the test compounds were applied by bath perfusion using gravity or pump-driven flow. A minimum of 2 mL (10 times the bath volume) over 3 minutes were flowed for each compound concentration tested. Data were averaged across at least 3 cells tested for each concentration.
Test compounds were examined for their ability to inhibit the inactivation of the steady state portion of the IV curve.

In data set [3] the test system is seizures induced by administration of pentylenetetrazole (PTZ). Description: Inhibiting PTZ induced seizures. The data set is classed as in vivo. The conditions noted are these: Mus musculus; adult mice, i.p. pretreatment 30 min before PTZ 85 mg/kg s.c., 30 minute test period; read-out: ED50, Dose Range. Here is the method: Compounds useful in this invention were also examined for their anticonvulsant activity in vivo by assessing their ability to inhibit the seizures induced by administration of pentylenetetrazole (PTZ). Adult mice were pretreated intraperitoneally with the test compound. Thirty minutes later these animals were challenged with pentylenetetrazole (85 mg/kg, s.c.) and observed for onset of seizures during a 30 minute test period.

T1 sequence (Q09470 whole entry): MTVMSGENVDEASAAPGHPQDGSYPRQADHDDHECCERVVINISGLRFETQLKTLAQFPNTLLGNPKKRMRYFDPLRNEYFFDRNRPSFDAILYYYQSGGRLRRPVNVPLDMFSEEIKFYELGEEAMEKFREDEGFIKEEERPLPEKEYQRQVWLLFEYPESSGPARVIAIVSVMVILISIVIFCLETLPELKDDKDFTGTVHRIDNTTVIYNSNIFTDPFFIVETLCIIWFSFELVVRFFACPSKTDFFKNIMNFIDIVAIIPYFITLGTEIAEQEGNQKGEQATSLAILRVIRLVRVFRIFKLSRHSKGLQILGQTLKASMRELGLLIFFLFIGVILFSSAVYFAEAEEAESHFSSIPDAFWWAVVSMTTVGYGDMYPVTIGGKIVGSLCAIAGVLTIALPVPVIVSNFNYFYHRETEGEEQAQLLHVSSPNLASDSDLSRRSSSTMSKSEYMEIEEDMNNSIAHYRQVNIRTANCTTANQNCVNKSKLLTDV
T1 sequence (Q14722 whole entry): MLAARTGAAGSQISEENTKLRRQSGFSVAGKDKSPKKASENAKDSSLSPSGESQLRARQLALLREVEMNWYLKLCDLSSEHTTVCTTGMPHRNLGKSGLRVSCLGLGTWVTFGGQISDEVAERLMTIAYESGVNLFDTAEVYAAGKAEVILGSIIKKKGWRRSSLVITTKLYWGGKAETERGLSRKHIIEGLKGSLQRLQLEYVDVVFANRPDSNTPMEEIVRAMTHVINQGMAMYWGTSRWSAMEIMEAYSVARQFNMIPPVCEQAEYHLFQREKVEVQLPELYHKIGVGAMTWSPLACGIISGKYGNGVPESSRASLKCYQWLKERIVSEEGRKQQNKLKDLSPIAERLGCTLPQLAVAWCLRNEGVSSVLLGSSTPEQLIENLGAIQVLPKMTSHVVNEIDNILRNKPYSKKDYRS

Regarding `Cc1nnc2n1-c1ccc(Cl)cc1C(c1ccccc1)=NC2` [Alprazolam, reference compound], the “Punished crossings (% of control)” value in data set [1] (0.3 mg/kg ip., 30 min prior to testing) turned out to be 170%. The “increase in the number of punished crossings” value in data set [1] (at therapeutically relevant doses) was 70%.

Usually ED50 stands for the dose at which the effect has come halfway, by size or by number of responders. In general, melting point refers to the temperature, or range, at which the solid turns liquid. For the compound `CC1(C)CC(=O)C(C(=O)Nc2cccc(Cl)c2)C(=O)C1` [Example 1, N-(3-chlorophenyl)-4,4-dimethyl-2,6-dioxocyclohexanecarboxamide], the melting point lay within 89 to 91 °C. The activation at 100 µM in data set [2] amounted to 21%. Also, in data set [3], the 50% effective dose (ED50) is 30 mg/kg.

Compound `CC1(C)CC(=O)C(C(=O)Nc2ccc(Cl)c(Cl)c2)C(=O)C1` [Example 2, N-(3,4-dichlorophenyl)-4,4-dimethyl-2,6-dioxocyclohexanecarboxamide] came in with a melting point of 124 to 129 °C. Moreover, the activation at 100 µM in data set [2] was found to be 75%. In addition, in data set [3], the ED50 amounted to 50 mg/kg.

Turning to `CC1(C)CC(=O)C(C(=O)Nc2cccc(C(F)(F)F)c2)C(=O)C1` [Example 8, N-(3-trifluoromethylphenyl)-4,4-dimethyl-2,6-dioxocyclohexanecarboxamide], the melting point lay in the range of 116 to 117 °C. Further, the “increase in the number of punished crossings” value in data set [1] (56 mg/kg ip) is 31%. Also, in data set [1] (60 mg/kg ip., 30 min prior to testing), the “% Time Spent in Open Zones (Relative to Control)” value worked out at 131%. Also, the activation at 100 µM in data set [2] was 40%. The ED50 in data set [3] amounted to 32 mg/kg.

Regarding `CC1(C)CC(=O)C(C(=O)Nc2cc(C(F)(F)F)cc(C(F)(F)F)c2)C(=O)C1` [Example 9, N-[3,5-bis(trifluoromethyl)phenyl]-4,4-dimethyl-2,6-dioxocyclohexanecarboxamide], the activation at 50 µM in data set [2] was found to be 20%. Besides, the ED50 in data set [3] was determined as 55 mg/kg.

In turn, `CC1(C)CC(=O)C(C(=O)Nc2cc(F)cc(F)c2)C(=O)C1F` (centres unmarked) [Example 29, 3-Fluoro-4,4-dimethyl-2,6-dioxo-cyclohexanecarboxylic acid(3,5-difluoro-phenyl)-amide] showed a melting point of 131 to 132 °C. Further, the activation at 50 µM in data set [2] came out at 258%.
